Results: patent publication US7264808B2, “Synthetic peptide for neurological disorders” (priority 2000, dated 2007)

Columns and labels:
Anti-AD-10 = assay: ELISA titer of specimens with Anti-AD-10; assay type: binding, mice; details: for ELISA titer Anti-AD-10: Table II, specimen coated
Experimental: Adult Balb/C mice were used for immunization. The mice were used in compliance with the US Public Health Service Policy on humane care and use of animals. First injection consisted of the mixture 100 μg of each version of ADESH in 0.1 ml mixed with equal volume of Freund's complete adjuvant/mouse. The subsequent injections consisted of the mixture 100 μg of ADESH and equal volume of incomplete Freund's adjuvant/mouse. The mice were injected intramuscularly (IM) six times two weeks apart. At the end of the immunization the mice were bled through the ophthalmic veins and serum was separated.
(§1) Enzyme-Linked Immunosorbent Assay (ELISA): The binding affinity of Anti-ADESH made against ADESH consisting of ten amino acids (AD-10), to various specimens known to contain NGF, such as venoms, body fluids, saliva, serum, urine etc. was studied by ELISA. The ELISA binding of Anti-AD-10 was compared to Anti-NGF made against cobra venom. ELISA tests were performed in 96 well microtiter plate. The wells of the plate were coated with one concentration of antigen, diluted in PBS each well receiving 100 μL. The plate was incubated at room temperature (RT) for 16 to 18 hours after which it was three times (3×) with PBS. The wells of the plate were blocked with 0.25 ml/well of 3% Teleostean gelatin from cold water fish (Sigma) for ½ hour at RT. Anti-AD-10 and Anti-NGFs were diluted threefold in gelatin were added to the appropriate wells of ELISA plate, including positive and negative controls. The plate was incubated at 37° C. for 1 to 1.5 hours. After washing 3X times horseradish peroxidase conjugated with IgG made in goat (Sigma) was added and incubated for 1 hour. Finally, the plate was washed and reacted with O-Phenylenediamine Dihydrochloride (OPD) for color development. The test was after ½ hour for ELISA titers.

PC12 cells [1] = assay: Neurite outgrowth on PC12 cells; assay type: cell-based, rat; details: for Neurites on PC12: concentration producing neurite outgrowth, read after 72 hours
Experimental: The trypsin digested fragments in various concentrations were tested for neurite out growth on PC12 cells. Tissue culture plate having 24 wells were seeded with 10^5 PC12 cells in serum free Dulbeco Modified Eagle's medium (DMEM). The results were read after 72 hours for neurite outgrowth. The fraction showing the most neurite outgrowth at the lowest concentration was sequenced for its amino acids composition. Sequencing was contracted out to the Protein Core Laboratory of Baylor College of Medicine, Houston, Tex.

PC12 cells [2] = assay: Toxicity to PC12 cells; assay type: cell-based, rat; details: toxic concentration on PC12 cells
Anti-V-NGF = assay: ELISA titer of specimens with Anti-V-NGF; assay type: binding; details: in comparison to Anti-H-NGF
Experimental: as §1

[3] = cited from earlier work
NGF, NT-3 and bFGF = details: animals; brain areas associated with memory loss; cited from earlier work

Molecule | ELISA titer Anti-AD-10 (Anti-AD-10) | neurite outgrowth on PC12 cells (in words) (PC12 cells [1]) | Neurites on PC12 (PC12 cells [1]) [µg] | Toxicity to PC12 (PC12 cells [2]) [µg] | other results
N L G E H P V C D S T D T W V (NLGEHPVCDSTDTWV; SYNTHESIZED. SIMILAR TO FRAGMENT 7-21 OF SEQ ID NO 1 ABOVE.) [AD-15, ID; NO: 2, first fifteen amino acids] | 1800 | biologically active in producing neurite outgrowth | 1 | >100 | 
H-NGF serum: NGF of human origin isolated from serum | 2700 |  |  |  | 
ADESH: name of the inventive peptides; in b30 the synthetic ADESH consisting of ten amino acids (AD-10) (NLGEHPVCDS) |  | equally active as the fragment of the native NGF |  |  | reaction with Anti-V-NGF (in words) (Anti-V-NGF): react poorly
O=C(CCn1cnc2c(=O)[nH]cnc21)Nc1ccc(C(=O)[O-])cc1.[K+] [AIT-082] |  |  |  |  | absorption and activity after oral administration [3]: rapidly absorbed and active after oral administration; activation of genes producing neurotrophic factors in brain (NGF, NT-3 and bFGF): activate multiple genes in animals to produce three different neurotrophic factors
N L G E H P V C D S (NLGEHPVCDS; SYNTHESIZED. SIMILAR TO FRAGMENT 7-16 OF SEQ. ID. NO. 1.) [AD-10] | 2700 | biologically active in producing neurite outgrowth | 1 | >100 | 
H-NGF saliva: NGF of human origin isolated from saliva | 2700 |  |  |  | 
N L G E H (NLGEH; SYNTHESIZED. CORRESPONDS TO FRAGMENT 7-11 OF SEQ. ID. NO. 1.) [AD-5, ID; NO: 4, first five amino acids] | 600 | biologically active in producing neurite outgrowth | 2 | >100 | 
H-NGF urine: NGF of human origin isolated from urine | 2700 |  |  |  | 
V-NGF (protein) EDHPVHNLGEHSVCDSVSAWVTKTTATDIKGNTVTVMENVNLDNKVYKEYFFETKCKNPNPEPSGCRGIDSSHWNSYCTETDTFIKALTMEGNQASWRFIRIETACVCVITKKKGN | 900 |  | 0.005 | 5 | reaction with Anti-AD-10 / Anti-ADESH (in words) (Anti-AD-10): react
